According to ChEMBL document CHEMBL1201861, “Genomics of Drug Sensitity in Cancer screening data, Wellcome Trust Sanger Institute”:

Tests used:
COLO-741 = experiment: cells; format: functional, cell-based; conditions: Homo sapiens
Description: SANGER: Inhibition of human COLO-741 cell growth in a cell viability assay.

CP50-MEL-B = experiment: cells; format: functional, cell-based; conditions: Homo sapiens
Description: SANGER: Inhibition of human CP50-MEL-B cell growth in a cell viability assay.

Calu-3 = experiment: cells; format: functional, cell-based; conditions: Homo sapiens
Description: SANGER: Inhibition of human Calu-3 cell growth in a cell viability assay.

Detroit 562 = experiment: cells; format: functional, cell-based; conditions: Homo sapiens
Description: SANGER: Inhibition of human Detroit562 cell growth in a cell viability assay.

EFO-21 = experiment: cells; format: functional, cell-based; conditions: Homo sapiens
Description: SANGER: Inhibition of human EFO-21 cell growth in a cell viability assay.

EW-22 = experiment: cells; format: functional, cell-based; conditions: Homo sapiens
Description: SANGER: Inhibition of human EW-22 cell growth in a cell viability assay.

G-361 = experiment: cells; format: functional, cell-based; conditions: Homo sapiens
HCC1954 = experiment: cells; format: functional, cell-based; conditions: Homo sapiens
Description: SANGER: Inhibition of human HCC1954 cell growth in a cell viability assay.

HOP-92 = experiment: cells; format: functional, cell-based; conditions: Homo sapiens
Description: SANGER: Inhibition of human HOP-92 cell growth in a cell viability assay.

HuTu80 = experiment: cells; format: functional, cell-based, Homo sapiens, HUTU-80; conditions: Homo sapiens, HuTu80
Description: SANGER: Inhibition of human HUTU-80 cell growth in a cell viability assay.

HuO-3N1 = experiment: cells; format: functional, cell-based; conditions: Homo sapiens
Description: SANGER: Inhibition of human HuO-3N1 cell growth in a cell viability assay.

HuP-T3 = experiment: cells; format: functional, cell-based; conditions: Homo sapiens
Description: SANGER: Inhibition of human HuP-T3 cell growth in a cell viability assay.

KP-N-YN = experiment: cells; format: functional, cell-based; conditions: Homo sapiens
Description: SANGER: Inhibition of human KP-N-YN cell growth in a cell viability assay.

KYSE-410 = experiment: cells; format: functional, cell-based; conditions: Homo sapiens
Description: SANGER: Inhibition of human KYSE-410 cell growth in a cell viability assay.

LN-405 = experiment: cells; format: functional, cell-based; conditions: Homo sapiens
Description: SANGER: Inhibition of human LN-405 cell growth in a cell viability assay.

MC-IXC = experiment: cells; format: functional, cell-based; conditions: Homo sapiens
Description: SANGER: Inhibition of human MC-IXC cell growth in a cell viability assay.

MDA-MB-157 = experiment: cells; format: functional, cell-based; conditions: Homo sapiens
Description: SANGER: Inhibition of human MDA-MB-157 cell growth in a cell viability assay.

ME-180 = experiment: cells; format: functional, cell-based; conditions: Homo sapiens
Description: SANGER: Inhibition of human ME-180 cell growth in a cell viability assay.

MEL-HO = experiment: cells; format: functional, cell-based; conditions: Homo sapiens
Description: SANGER: Inhibition of human MEL-HO cell growth in a cell viability assay.

MEL-JUSO = experiment: cells; format: functional, cell-based; conditions: Homo sapiens
Description: SANGER: Inhibition of human MEL-JUSO cell growth in a cell viability assay.

MKN-28 = experiment: cells; format: functional, cell-based; conditions: Homo sapiens
Description: SANGER: Inhibition of human MKN28 cell growth in a cell viability assay.

MKN-7 = experiment: cells; format: functional, cell-based; conditions: Homo sapiens
Description: SANGER: Inhibition of human MKN7 cell growth in a cell viability assay.

MOLT-13 = experiment: cells; format: functional, cell-based; conditions: Homo sapiens
Description: SANGER: Inhibition of human MOLT-13 cell growth in a cell viability assay.

NCI-H2009 = experiment: cells; format: functional, cell-based; conditions: Homo sapiens
Description: SANGER: Inhibition of human NCI-H2009 cell growth in a cell viability assay.

NCI-H2405 = experiment: cells; format: functional, cell-based; conditions: Homo sapiens
Description: SANGER: Inhibition of human NCI-H2405 cell growth in a cell viability assay.

NCI-H810 = experiment: cells; format: functional, cell-based; conditions: Homo sapiens
Description: SANGER: Inhibition of human NCI-H810 cell growth in a cell viability assay.

PANC-03-27 = experiment: cells; format: functional, cell-based; conditions: Homo sapiens
Description: SANGER: Inhibition of human PANC-03-27 cell growth in a cell viability assay.

Panc1005 = experiment: cells; format: functional, cell-based; conditions: Homo sapiens
Description: SANGER: Inhibition of human PANC-10-05 cell growth in a cell viability assay.

RO82-W-1 = experiment: cells; format: functional, cell-based; conditions: Homo sapiens
Description: SANGER: Inhibition of human RO82-W-1 cell growth in a cell viability assay.

SBC-5 = experiment: cells; format: functional, cell-based; conditions: Homo sapiens
Description: SANGER: Inhibition of human SBC-5 cell growth in a cell viability assay.

SCC-4 = experiment: cells; format: functional, cell-based; conditions: Homo sapiens
Description: SANGER: Inhibition of human SCC-4 cell growth in a cell viability assay.

SN12C = experiment: cells; format: functional, cell-based; conditions: Homo sapiens
Description: SANGER: Inhibition of human SN12C cell growth in a cell viability assay.

SW48 = experiment: cells; format: functional, cell-based; conditions: Homo sapiens
Description: SANGER: Inhibition of human SW48 cell growth in a cell viability assay.

SiHa = experiment: cells; format: functional, cell-based; conditions: Homo sapiens
Description: SANGER: Inhibition of human SiHa cell growth in a cell viability assay.

T-24 = experiment: cells; format: functional, cell-based; conditions: Homo sapiens
Description: SANGER: Inhibition of human T-24 cell growth in a cell viability assay.

639-V = experiment: cells; format: functional, cell-based; conditions: Homo sapiens
Description: SANGER: Inhibition of human 639-V cell growth in a cell viability assay.

786-0 = experiment: cells; format: functional, cell-based; conditions: Homo sapiens
Description: SANGER: Inhibition of human 786-0 cell growth in a cell viability assay.

8305C = experiment: cells; format: functional, cell-based; conditions: Homo sapiens
Description: SANGER: Inhibition of human 8305C cell growth in a cell viability assay.

A204 = experiment: cells; format: functional, cell-based; conditions: Homo sapiens
Description: SANGER: Inhibition of human A204 cell growth in a cell viability assay.

A-431 = experiment: cells; format: functional, cell-based; conditions: Homo sapiens
Description: SANGER: Inhibition of human A431 cell growth in a cell viability assay.

ABC-1 = experiment: cells; format: functional, cell-based; conditions: Homo sapiens
Description: SANGER: Inhibition of human ABC-1 cell growth in a cell viability assay.

BEN = experiment: cells; format: functional, cell-based; conditions: Homo sapiens
Description: SANGER: Inhibition of human BEN cell growth in a cell viability assay.

C32 = experiment: cells; format: functional, cell-based; conditions: Homo sapiens
Description: SANGER: Inhibition of human C32 cell growth in a cell viability assay.

TYK-nu = experiment: cells; format: functional, cell-based; conditions: Homo sapiens
Description: SANGER: Inhibition of human TYK-nu cell growth in a cell viability assay.

UO-31 = experiment: cells; format: functional, cell-based; conditions: Homo sapiens
Description: SANGER: Inhibition of human U031 cell growth in a cell viability assay.

UACC-893 = experiment: cells; format: functional, cell-based; conditions: Homo sapiens
Description: SANGER: Inhibition of human UACC-893 cell growth in a cell viability assay.

VM-CUB-1 = experiment: cells; format: functional, cell-based; conditions: Homo sapiens
Description: SANGER: Inhibition of human VM-CUB-1 cell growth in a cell viability assay.

DMS-153 = experiment: cells; format: functional, cell-based, Homo sapiens; conditions: Homo sapiens, DMS-153
Description: SANGER: Inhibition of human DMS-153 cell growth in a cell viability assay.

KARPAS-422 = experiment: cells; format: functional, cell-based, Homo sapiens; conditions: Homo sapiens, KARPAS-422
Description: SANGER: Inhibition of human KARPAS-422 cell growth in a cell viability assay.

KMS-12-PE = experiment: cells; format: functional, cell-based, Homo sapiens; conditions: Homo sapiens, KMS-12-PE
Description: SANGER: Inhibition of human KMS-12-PE cell growth in a cell viability assay.

MHH-CALL-2 = experiment: cells; format: functional, cell-based, Homo sapiens; conditions: Homo sapiens, MHH-CALL-2
Description: SANGER: Inhibition of human MHH-CALL-2 cell growth in a cell viability assay.

MRK-nu-1 = experiment: cells; format: functional, cell-based, Homo sapiens; conditions: Homo sapiens, MRK-nu-1
Description: SANGER: Inhibition of human MRK-nu-1 cell growth in a cell viability assay.

NCI-H748 = experiment: cells; format: functional, cell-based, Homo sapiens; conditions: Homo sapiens, NCI-H748
Description: SANGER: Inhibition of human NCI-H748 cell growth in a cell viability assay.

P31-FUJ = experiment: cells; format: functional, cell-based, Homo sapiens; conditions: Homo sapiens, P31-FUJ
Description: SANGER: Inhibition of human P31-FUJ cell growth in a cell viability assay.

RPMI-6666 = experiment: cells; format: functional, cell-based, Homo sapiens; conditions: Homo sapiens, RPMI-6666
Description: SANGER: Inhibition of human RPMI-6666 cell growth in a cell viability assay.

TALL-1 = experiment: cells; format: functional, cell-based, Homo sapiens; conditions: Homo sapiens, TALL-1
Description: SANGER: Inhibition of human TALL-1 cell growth in a cell viability assay.

BC1 cell line = experiment: SANGER: Inhibition of human BC-1 cell growth in a cell viability assay.; format: functional, cell-based; conditions: Homo sapiens, BC1
BOKU = experiment: cells; format: functional, cell-based; conditions: Homo sapiens
Description: SANGER: Inhibition of human BOKU cell growth in a cell viability assay.

TE-441-T = experiment: cells; format: functional, cell-based, Homo sapiens; conditions: Homo sapiens, TE-441-T
Description: SANGER: Inhibition of human TE-441-T cell growth in a cell viability assay.

YT = experiment: cells; format: functional, cell-based, Homo sapiens; conditions: Homo sapiens, YT
Description: SANGER: Inhibition of human YT cell growth in a cell viability assay.

## NC(=O)Nc1cc(-c2cccc(F)c2)sc1C(=O)N[C@H]1CCCNC1 [AZD-7762]
COLO-741
  IC50: > 2000 nM
CP50-MEL-B
  IC50: > 2000 nM
Calu-3
  IC50: > 2000 nM
Detroit 562
  IC50: 333 nM
EFO-21
  IC50: > 2000 nM
EW-22
  IC50: 584 nM
G-361
  IC50: 387 nM
HCC1954
  IC50: > 2000 nM
HOP-92
  IC50: 293 nM
HuTu80
  IC50: > 2000 nM
HuO-3N1
  IC50: 941 nM
HuP-T3
  IC50: 87.1 nM
KP-N-YN
  IC50: 349 nM
KYSE-410
  IC50: 1040 nM
LN-405
  IC50: 877 nM
MC-IXC
  IC50: 128 nM
MDA-MB-157
  IC50: 86.6 nM
ME-180
  IC50: 1720 nM
MEL-HO
  IC50: 979 nM
MEL-JUSO
  IC50: 131 nM
MKN-28
  IC50: > 2000 nM
MKN-7
  IC50: 1210 nM
MOLT-13
  IC50: 463 nM
NCI-H2009
  IC50: > 2000 nM
NCI-H2405
  IC50: > 2000 nM
NCI-H810
  IC50: > 2000 nM
PANC-03-27
  IC50: 143 nM
Panc1005
  IC50: > 2000 nM
RO82-W-1
  IC50: > 2000 nM
SBC-5
  IC50: 513 nM
SCC-4
  IC50: 1020 nM
SN12C
  IC50: 1120 nM
SW48
  IC50: 792 nM
SiHa
  IC50: 859 nM
T-24
  IC50: 370 nM
639-V
  IC50: 1170 nM
786-0
  IC50: 388 nM
8305C
  IC50: 789 nM
A204
  IC50: 8.56 nM
A-431
  IC50: 925 nM
ABC-1
  IC50: 261 nM
BEN
  IC50: > 2000 nM
C32
  IC50: 347 nM
TYK-nu
  IC50: 281 nM
UO-31
  IC50: 482 nM
UACC-893
  IC50: > 2000 nM
VM-CUB-1
  IC50: 619 nM

## Cc1ccc(-n2nc(C(C)(C)C)cc2NC(=O)Nc2ccc(OCCN3CCOCC3)c3ccccc23)cc1 [DORAMAPIMOD]
COLO-741
  IC50: > 10000 nM
CP50-MEL-B
  IC50: > 10000 nM
Calu-3
  IC50: > 10000 nM
Detroit 562
  IC50: > 10000 nM
EFO-21
  IC50: > 10000 nM
EW-22
  IC50: > 10000 nM
G-361
  IC50: > 10000 nM
HCC1954
  IC50: > 10000 nM
HOP-92
  IC50: > 10000 nM
HuTu80
  IC50: > 10000 nM
HuO-3N1
  IC50: > 10000 nM
HuP-T3
  IC50: > 10000 nM
KP-N-YN
  IC50: 8200 nM
KYSE-410
  IC50: > 10000 nM
LN-405
  IC50: > 10000 nM
MC-IXC
  IC50: > 10000 nM
MDA-MB-157
  IC50: > 10000 nM
ME-180
  IC50: > 10000 nM
MEL-HO
  IC50: > 10000 nM
MEL-JUSO
  IC50: > 10000 nM
MKN-28
  IC50: > 10000 nM
MKN-7
  IC50: > 10000 nM
MOLT-13
  IC50: > 10000 nM
NCI-H2009
  IC50: > 10000 nM
NCI-H2405
  IC50: > 10000 nM
NCI-H810
  IC50: > 10000 nM
PANC-03-27
  IC50: > 10000 nM
Panc1005
  IC50: > 10000 nM
RO82-W-1
  IC50: > 10000 nM
SBC-5
  IC50: > 10000 nM
SCC-4
  IC50: > 10000 nM
SN12C
  IC50: > 10000 nM
SW48
  IC50: > 10000 nM
SiHa
  IC50: > 10000 nM
T-24
  IC50: 8410 nM
639-V
  IC50: > 10000 nM
786-0
  IC50: > 10000 nM
8305C
  IC50: > 10000 nM
A204
  IC50: > 10000 nM
A-431
  IC50: > 10000 nM
ABC-1
  IC50: > 10000 nM
BEN
  IC50: > 10000 nM
C32
  IC50: > 10000 nM
TYK-nu
  IC50: > 10000 nM
UO-31
  IC50: > 10000 nM
UACC-893
  IC50: > 10000 nM
VM-CUB-1
  IC50: > 10000 nM

## C/C(=C\c1csc(C)n1)[C@@H]1C[C@@H]2O[C@]2(C)CCC[C@H](C)[C@H](O)[C@@H](C)C(=O)C(C)(C)[C@@H](O)CC(=O)O1 [PATUPILONE]
COLO-741
  IC50: 2.72 nM
CP50-MEL-B
  IC50: 19 nM
Calu-3
  IC50: 1.68 nM
DMS-153
  IC50: 29.3 nM
Detroit 562
  IC50: 1.4 nM
EFO-21
  IC50: 9.82 nM
G-361
  IC50: 0.701 nM
HCC1954
  IC50: 9.19 nM
HOP-92
  IC50: > 32 nM
HuTu80
  IC50: 0.328 nM
HuO-3N1
  IC50: > 32 nM
HuP-T3
  IC50: 3.81 nM
KARPAS-422
  IC50: 10.6 nM
KMS-12-PE
  IC50: > 32 nM
KP-N-YN
  IC50: > 32 nM
KYSE-410
  IC50: 1.02 nM
LN-405
  IC50: > 32 nM
MC-IXC
  IC50: 3.06 nM
MDA-MB-157
  IC50: > 32 nM
ME-180
  IC50: 5.74 nM
MEL-HO
  IC50: 1.69 nM
MEL-JUSO
  IC50: 0.928 nM
MHH-CALL-2
  IC50: > 32 nM
MKN-28
  IC50: 0.462 nM
MKN-7
  IC50: > 32 nM
MRK-nu-1
  IC50: 0.9 nM
NCI-H2009
  IC50: 0.862 nM
NCI-H2405
  IC50: 12.7 nM
NCI-H748
  IC50: > 32 nM
NCI-H810
  IC50: 0.322 nM
P31-FUJ
  IC50: > 32 nM
PANC-03-27
  IC50: 0.132 nM
Panc1005
  IC50: 1.12 nM
RO82-W-1
  IC50: > 32 nM
RPMI-6666
  IC50: 1.5 nM
SBC-5
  IC50: 0.912 nM
SCC-4
  IC50: 0.877 nM
SN12C
  IC50: 9.39 nM
SW48
  IC50: 4.2 nM
SiHa
  IC50: > 32 nM
T-24
  IC50: 20.6 nM
TALL-1
  IC50: > 32 nM
639-V
  IC50: 0.218 nM
786-0
  IC50: 0.11 nM
8305C
  IC50: 2.32 nM
A204
  IC50: 3.12 nM
A-431
  IC50: < 0.125 nM
ABC-1
  IC50: 1.68 nM
BC1 cell line
  IC50: 1.99 nM
BEN
  IC50: 20.6 nM
BOKU
  IC50: > 32 nM
C32
  IC50: > 32 nM
TE-441-T
  IC50: 26.3 nM
TYK-nu
  IC50: > 32 nM
UO-31
  IC50: 3.12 nM
UACC-893
  IC50: > 32 nM
VM-CUB-1
  IC50: 3.09 nM
YT
  IC50: 18.7 nM
